Measurements: patent US8207156B2, “Substituted pyrazoline compounds, their preparation and use as medicaments” (Laboratorios Del Dr. Esteve, S.A., priority 2005, dated 2012)
Where a name gives a salt, the structure may show the parent alone.

Key:
CB1 receptor [1] = biological target: T1, CB1 receptor; assay: In-vitro determination of affinity to CB1/CB2-receptors (radioligand [3H]-CP55940 binding); conditions: binding data per pharmacological methods part I, table does not say whether human transfected receptor or rat cerebellum
T1 construct: IC50 [nM]; radioligand [3H]-CP55940
Method: (§1) The in-vitro determination of the affinity of the inventive substituted pyrazoline compounds to CB1/CB2-Rezeptors is carried out as described in the publication of Ruth A. Ross, Heather C. Brockie et al., “Agonist-inverse agonist characterization at CB1 and CB2 cannabinoid receptors of L-759633, L759656 and AM630”, British Journal of Pharmacology, 126, 665-672, (1999), whereby the transfected human CB1 and CB2 receptors of Receptor Biology, Inc. are used. The radioligand used for both receptors is [^3H]-CP55940. The respective parts of the description is hereby incorporated by reference and forms part of the present disclosure.
(§2) Binding affinity to CB1 receptor was evaluated according to a modification of the method described by Govaerts et al., Eur J Pharmac Sci 23, 233-243 (2004). The respective parts of the description is hereby incorporated by reference and forms part of the present disclosure.
(§3) Briefly, cerebellum from male wistar rats (250-300 g) were carefully dissected on ice and homogenates were prepared with Potter-Helveheim in a cold 50 mM Tris-HCl solution containing 5 mM MgCl2, 1 mM EDTA and 0.25 M sucrose, pH 7.4. The suspension was centrifuged at 1,000×g for 5 minutes. The supernatants were collected and centrifuged 50,000×g for 15 minutes. The resulting pellets were then resuspended in Tris-HCl buffer without sucrose, homogenized and incubated for 15 min at 37° C. in an orbital shaker bath and centrifuged again at 50,000×g for 15 min. Pellets were weighted, resuspended in Tris-HCl buffer without sucrose, homogenized with Ultraturrax at 13,500 rpm for 3×5 seconds and alicuoted in 0.9 ml volumes in Eppendorf tubes. Alicuotes were centrifuged at 20,800×g for 5 minutes, supernatants discarded and pellets were frozen at −80° C. until use. Total protein concentration was determined using the Bio-Rad Lowry method based kit. Competitive binding experiments were performed in presence of 1 nM [^3H]-CP 55,940 in siliconized glass tubes containing 100 μg protein/tube resuspended in 1 ml final volume of 50 mM Tris-HCl, 5 mM MgCl2, 1 mM EDTA, 0.5% (w/v) bovine serum albumin, pH 7.4. Compounds were present at various concentrations and the non specific binding was determined in the presence of 10 μM HU-210. After 1 hour incubation at 30° C., the suspension was rapidly filtered through 0.5% PEI pre-treated GF/B fiber filters on a 96-well harvester and washed 3 times with 3 ml ice-cold binding buffer without bovine serum albumin. Radioactivity on filters was measured with Wallac Winspectral 1414 counter by liquid scintillation in 6 ml Ecoscint H (National Diagnostics, U.K.). Assays were made in triplicates.
(§4) Binding data were analyzed by non-linear regression with the software GraphPad Prism Version 3.03.

CB1 receptor [2] = biological target: T2, CB1 receptor (UniProt P20272); assay: as above; conditions: for Inhibition [%], 10^−7 M: compound at 10^−7 M; for Inhibition [%], 10^−8 M: compound at 10^−8 M
T2 construct: other: compound at 10^−7 M; radioligand [3H]-CP55940; other: compound at 10^−8 M
Method: as §1, §2, §3, §4

| Structure (SMILES) | IC50 (CB1 receptor [1]) [nM] | Inhibition [%], 10^−7 M (CB1 receptor [2]) [%] | Inhibition [%], 10^−8 M (CB1 receptor [2]) [%] | IC50 (CB1 receptor [1]; hydrochloride) [nM] | Inhibition [%], 10^−7 M (CB1 receptor [2]; hydrochloride) [%] | Inhibition [%], 10^−8 M (CB1 receptor [2]; hydrochloride) [%] |
| --- | --- | --- | --- | --- | --- | --- |
| O=C(N[N+]1([O-])CCCCC1)C1=NN(c2ccc(Cl)cc2Cl)C(c2ccc(Cl)cc2)C1 (stereo not drawn) [Example 7, N-oxide of 5-(4-Chloro-phenyl)-1-(2,4-dichloro-phenyl)-4,5-dihydro-1H-pyrazole-3-carboxylic acid piperidin-1-ylamide] | 146 | 71.2 | −12.8 | – | – | – |
| O=C(NN1CCCC1)C1=NN(c2ccc(Cl)cc2Cl)C(c2ccc(Cl)cc2)C1 (stereo not drawn) [Example 11, 5-(4-Chloro-phenyl)-1-(2,4-dichloro-phenyl)-4,5-dihydro-1H-pyrazole-3-carboxylic acid pyrrolidin-1-ylamide] | 630 | – | – | – | – | – |
| CCCCN(NC(=O)C1=NN(c2ccc(Cl)cc2Cl)C(c2ccc(Cl)cc2)C1)c1ccccc1 (stereo not drawn) [Example 29, 5-(4-Chloro-phenyl)-1-(2,4-dichloro-phenyl)-4,5-dihydro-1H-pyrazole-3-carboxylic acid N′-butyl-N′-phenyl-hydrazide] | > 1000 | – | – | – | – | – |
| CC(C)(C)C1CCC(NC(=O)C2=NN(c3ccc(Cl)cc3Cl)C(c3ccc(Cl)cc3)C2)CC1 (stereo not drawn) [Example 31, 5-(4-Chloro-phenyl)-1-(2,4-dichloro-phenyl)-4,5-dihydro-1H-pyrazole-3-carboxylic acid (4-tert-butyl-cyclohexyl)-amide] | > 1000 | – | – | – | – | – |
| O=C(NCC1CCCCC1)C1=NN(c2ccc(Cl)cc2Cl)C(c2ccc(Cl)cc2)C1 (stereo not drawn) [Example 32, 5-(4-Chloro-phenyl)-1-(2,4-dichloro-phenyl)-4,5-dihydro-1H-pyrazole-3-carboxylic acid cyclohexylmethyl-amide] | 84 | 52.7 | 12 | – | – | – |
| O=C(C1=NN(c2ccc(Cl)cc2Cl)C(c2ccc(Cl)cc2)C1)N1CCN(Cc2ccccc2)CC1 (stereo not drawn) [Example 52, (4-Benzyl-piperazin-1-yl)-[5-(4-chloro-phenyl)-1-(2,4-dichloro-phenyl)-4,5-dihydro-1H-pyrazol-3-yl]-methanone] | 251 | – | – | – | – | – |
| O=C(NN1CCCCC1)C1=NN(c2ccc(Cl)cc2Cl)C(c2ccc(Br)cc2)C1 (stereo not drawn) [Example 60, 5-(4-Bromo-phenyl)-1-(2,4-dichloro-phenyl)-4,5-dihydro-1H-pyrazole-3-carboxylic acid piperidin-1-ylamide hydrochloride] | – | – | – | 27 | – | – |
| O=C(NN1CCCCC1)C1=NN(c2ccc(Cl)cc2Cl)C(c2ccc(Br)cc2)C1 (stereo not drawn) [Example 60A, 5-(4-Bromo-phenyl)-1-(2,4-dichloro-phenyl)-4,5-dihydro-1H-pyrazole-3-carboxylic acid piperidin-1-ylamide] | 44 | 65.8 | 33.3 | – | – | – |
| CCCNC(=O)C1=NN(c2ccc(Cl)cc2Cl)C(c2ccc(Cl)cc2)C1 (stereo not drawn) [Example 69, 5-(4-Chloro-phenyl)-1-(2,4-dichloro-phenyl)-4,5-dihydro-1H-pyrazole-3-carboxylic acid propylamide] | 355 | – | – | – | – | – |
| Cl.O=C(NN1CC2CCCC2C1)C1=NN(c2ccc(Cl)cc2Cl)C(c2ccc(F)cc2)C1 (stereo not drawn) [Example 91, 1-(2,4-Dichloro-phenyl)-5-(4-fluoro-phenyl)-4,5-dihydro-1H-pyrazole-3-carboxylic acid (hexahydro-cyclopenta[c]pyrrol-2-yl)-amide hydrochloride] | – | – | – | 47 | 79.1 | 43 |
| Cl.O=C(NN1CC2CCCC2C1)C1=NN(c2ccc(Cl)cc2Cl)C(c2ccc(F)cc2)C1 (stereo not drawn) [Example 91A, 1-(2,4-Dichloro-phenyl)-5-(4-fluoro-phenyl)-4,5-dihydro-1H-pyrazole-3-carboxylic acid (hexahydro-cyclopenta[c]pyrrol-2-yl)-amide] | 84 | 75.3 | 34.9 | – | – | – |
| O=C(NN1CCCCCC1)C1=NN(c2ccc(Cl)cc2Cl)C(c2ccc(F)cc2)C1 (stereo not drawn) [Example 96, 1-(2,4-Dichloro-phenyl)-5-(4-fluoro-phenyl)-4,5-dihydro-1H-pyrazole-3-carboxylic acid azepan-1-ylamide] | 56 | 74.8 | 43.3 | – | – | – |
| COc1ccc(C2CC(C(=O)NN3CCCCC3)=NN2c2ccc(Cl)cc2Cl)cc1.Cl (stereo not drawn) [Example 106, 1-(2,4-Dichloro-phenyl)-5-(4-methoxy-phenyl)-4,5-dihydro-1H-pyrazole-3-carboxylic acid piperidin-1-ylamide hydrochloride] | – | 76.1 | 23.4 | 32 | – | – |
| COc1ccc(C2CC(C(=O)NN3CC4CCCC4C3)=NN2c2ccc(Cl)cc2Cl)cc1.Cl (stereo not drawn) [Example 109, 1-(2,4-Dichloro-phenyl)-5-(4-methoxy-phenyl)-4,5-dihydro-1H-pyrazole-3-carboxylic acid (hexahydro-cyclopenta[c]pyrrol-2-yl)-amide hydrochloride] | – | – | – | 16 | 80.6 | 44 |
| COc1ccc(C2CC(C(=O)NN3CC4CCCC4C3)=NN2c2ccc(Cl)cc2Cl)cc1.Cl (stereo not drawn) [Example 109A, 1-(2,4-Dichloro-phenyl)-5-(4-methoxy-phenyl)-4,5-dihydro-1H-pyrazole-3-carboxylic acid (hexahydro-cyclopenta[c]pyrrol-2-yl)-amide] | 15 | 74.2 | 33.5 | – | – | – |
| COc1ccc(C2CC(C(=O)NN3CCc4ccccc43)=NN2c2ccc(Cl)cc2Cl)cc1.Cl (stereo not drawn) [Example 112, 1-(2,4-Dichloro-phenyl)-5-(4-methoxy-phenyl)-4,5-dihydro-1H-pyrazole-3-carboxylic acid (2,3-dihydro-indol-1-yl)-amide hydrochloride] | 106 | 61.8 | 46.3 | – | – | – |
| COc1ccc(C2CC(C(=O)NN3CCCCCC3)=NN2c2ccc(Cl)cc2Cl)cc1.Cl (stereo not drawn) [Example 114, 1-(2,4-Dichloro-phenyl)-5-(4-methoxy-phenyl)-4,5-dihydro-1H-pyrazole-3-carboxylic acid azepan-1-ylamide hydrochloride] | – | 68.7 | 47.6 | 24 | – | – |
| COc1ccc(C2CC(C(=O)NN3CCCCCC3)=NN2c2ccc(Cl)cc2Cl)cc1 (stereo not drawn) [Example 114A, 1-(2,4-Dichloro-phenyl)-5-(4-methoxy-phenyl)-4,5-dihydro-1H-pyrazole-3-carboxylic acid azepan-1-ylamide] | 18 | 79.3 | 41.4 | – | – | – |
| O=C(NC1CCCCCC1)C1=NN(c2ccc(Cl)cc2Cl)C(c2ccc(Br)cc2)C1 (stereo not drawn) [Example 130, 5-(4-Bromo-phenyl)-1-(2,4-dichloro-phenyl)-4,5-dihydro-1H-pyrazole-3-carboxylic acid cycloheptylamide] | 52 | 67.7 | 33.1 | – | – | – |
| O=C(NC1CCCCCC1)C1=NN(c2ccc(Cl)cc2Cl)C(c2ccc(F)cc2)C1 (stereo not drawn) [Example 131, 5-(4-Fluorophenyl)-1-(2,4-dichloro-phenyl)-4,5-dihydro-1H-pyrazole-3-carboxylic acid cycloheptylamide] | 115 | 70.2 | 42.9 | – | – | – |
